Results on four compounds are retold here after patent US12110255B2, “Additive formulation for reduction or prevention of microbially induced corrosion in concrete or cementitious material” (MICROBAN PRODUCTS COMPANY, priority 2017, dated 2024).

Assay [1] relates to Fusarium oxysporum. In words: Minimum Inhibitory Concentration (MIC) test, aqueous state. In kind it is cell-based. As to conditions: for MIC: Fusarium oxysporum. As for the experimental part: (§1) Table 1 indicates the MIC values generated against Th. Novella, Fusarium and a combination of the two for two antifungal additives that were tested in the aqueous state.
In addition to testing the active ingredients alone, MIC tests were conducted for combinations of the QS and the antifungal actives. An OIT active material was added to this test using the QS molecule to compatibilize the mixture, making the mixture water soluble so MIC testing was possible. Table 2 summarizes the MIC data generated for these actives:
(§2) Testing was also conducted to determine whether the addition of the defoamer or mixing the QS and OIT together would have any effect on the microbial efficacy of these components.

Assay [2] has as its system Starkeya + Fusarium. The description is as above. As to conditions: for MIC: Fusarium, read-out: Active Ingredient Minimum Inhibitory Concentration, Starkeya + Fusarium. In kind it is cell-based, Starkeya novella + Fusarium oxysporum. As for the experimental part:
as §1
(§3) In addition to testing the active ingredients alone, MIC tests were conducted for combinations of the QS and the antifungal actives. An OIT active material was added to this test using the QS molecule to compatibilize the mixture, making the mixture water soluble so MIC testing was possible. Table 2 summarizes the MIC data generated for these actives: […]

Assay [3] relates to Aspergillus niger. As to the kind of experiment: Minimum Inhibitory Concentration (MIC) test. In kind it is cell-based. The conditions noted are these: Table 5, Tributyl Phosphate Defoamer: No. As for the experimental part: as §2
In assay [4] the test system is Starkeya novella. In words: Minimum Inhibitory Concentration (MIC) test, aqueous state. In kind it is cell-based. The conditions noted are these: Ancylobacter novellus, active ingredient alone. As for the experimental part:
as §1, §3

Where [5] appears, read: active ingredient alone, aqueous state.
[6] abbreviates: Table 5, Tributyl Phosphate Defoamer: No, read-out: MIC, Fusarium oxysporum.

Values after ≈ are worked out from the molar mass of the structure shown. Read-outs that look alike come from different tables or passages of the source.

Turning to Imazalil Sulphate [IF4], the “Active Ingredient Minimum Inhibitory Concentration, Fusarium oxysporum” value in assay [1] (setting [5]) was 500 ppm. In addition, the “Active Ingredient Minimum Inhibitory Concentration, Starkeya + Fusarium” value in assay [2] (setting [5]) is reported as 500 ppm.

Take `CCCCCCCCCCCCCCCCCC[N+](C)(C)CCC[Si](OC)(OC)OC.[Cl-]` [QS, 1-Octadecanaminium, N,N-dimethyl-N-(3-(trimethoxysilyl)propyl)-, chloride]: the MIC is 125 µg/mL in assay [3]; 7.8 µg/mL in assay [4]; 15.6 µg/mL in assay [1] (setting [6]); 15.6 µg/mL in assay [1] (active ingredient alone, aqueous state, read-out: Active Ingredient Minimum Inhibitory Concentration, Fusarium oxysporum); 31.3 µg/mL in assay [2] (setting [5]).

Regarding `Oc1ccccc1-c1ccccc1.[Na]` [P2, Sodium OrthophenylPhenol], the MIC turned out to be 250 µg/mL in assay [1] (read-out: Active Ingredient Minimum Inhibitory Concentration, Fusarium oxysporum) and 125 µg/mL in assay [2].

On to `CCCCCCCCn1sccc1=O` [OIT, 2-Octyl-2H-isothiazol-3-one], for which the MIC came out at 6.3 µg/mL (≈ 29.5 µM) in assay [3] and 6.3 µg/mL in assay [1] (setting [6]).
